This passage reports melting point results from patent publication US6440967B1, “Combination of a GABAA alpha 5 inverse agonist and COX-2 inhibitor, NSAID, estrogen or vitamin E” (Merck & Co., Inc., priority 1998, dated 2002).

For `Cc1cc(-c2nnc3c4ccccc4c(OCc4cccc(Br)n4)nn23)no1` [Reference Example 2, 6-(6-Bromopyridin-2-yl)methyloxy-3-(5-methylisoxazol-3-yl)-1,2,4-triazolo[3,4-a]phthalazine], the melting point lay in the range of 247.5 to 249 °C.

As a reminder, the melting point is the temperature, or range, at which the solid turns liquid.
